Test results: ChEMBL document CHEMBL1208770, “Inhibitors of osteoclastogenesis from Lawsonia inermis leaves” (Bioorg Med Chem Lett, 2010)

Assays:
[1] = Inhibition of RANKL-induced osteoclastogenesis in mouse BMDM assessed as decrease in TRAP-positive cells at 10 uM after 5 days by light microscopy; type: functional; details: 120 h
[2] = Cytotoxicity against mouse BMDM cells at 10 uM after 72 hrs by MTS assay; type: cell-based

## O=c1ccc2ccc(O[C@@H]3O[C@H](CO)[C@@H](O)[C@H](O)[C@H]3O)c(O[C@@H]3O[C@H](CO)[C@@H](O)[C@H](O)[C@H]3O)c2o1 [DAPHNESIDE]
[1]
  inhibition at 10 µM: 20%
[2]
  Activity: Non-toxic

## COc1cc2cc(Oc3ccc4ccc(=O)oc4c3)c(=O)oc2cc1O[C@@H]1O[C@H](CO)[C@@H](O)[C@H](O)[C@H]1O [DAPHNORIN]
[1]
  inhibition at 10 µM: 13%
[2]
  Activity: Non-toxic
